Patent US9079866B2, “Flap modulators” (JANSSEN PHARMACEUTICA NV, priority 2013, dated 2015)
Counter-ions that a name gives are not always drawn. Like-named read-outs stand apart in the source and are kept apart here.

What was measured:
[1] = tested on: leukotriene pathway in human whole blood (LTB4 levels); assay: Human whole blood assay (A23187-stimulated LTB4); assay type: cell-based; details: Homo sapiens, human whole blood diluted 1:1 in RPMI, A23187-stimulated LTB4; read-out: LTB4 IC50 1:1
In short: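 Compounds are pre-incubated 15 min at 37° Celsius in RPMI-diluted (1:1) heparinised whole blood before a 30 min A23187 stimulus (7 μg/mL). Plasma LTB4 is read by immunoassay kit, with IC50 calculated from a 4-parameter equation.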

human FLAP = human FLAP (Homo sapiens (Human), UniProt P20292); assay: FLAP binding assay (HTRF format)
Sequence of human FLAP (P20292 whole entry): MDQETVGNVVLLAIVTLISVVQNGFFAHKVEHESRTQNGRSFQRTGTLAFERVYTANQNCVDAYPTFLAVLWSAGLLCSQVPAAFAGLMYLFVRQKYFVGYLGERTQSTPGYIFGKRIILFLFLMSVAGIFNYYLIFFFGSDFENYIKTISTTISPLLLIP
In short: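 Reported data take the mean of two different plates carrying duplicate samples and use the HTRF ratio as the measured signal.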

[2] = human FLAP wild type, HTRF format, average of two plates, duplicates
[3] = read-out: FLAP Binding wild type HTRF Ki

IC50 [1] [nM] | Ki (human FLAP; [2]) [nM] | SMILES | Ki (human FLAP; [3]) [nM]
176 | 35 | NC(=O)CSc1ccccc1-c1ccc(-c2cnc(N)cn2)c(F)c1 [Example 200, 2-{[4′-(5-Aminopyrazin-2-yl)-3′-fluorobiphenyl-2-yl]sulfanyl}acetamide] | –
128 | 4 | Nc1cnc(-c2ccc(-c3ccccc3SCCNC(=O)c3ccccc3)cc2F)cn1 [Example 204, N-(2-{[4′-(5-Aminopyrazin-2-yl)-3′-fluorobiphenyl-2-yl]sulfanyl}ethyl)benzamide] | –
66 | 8 | CS(=O)(=O)c1ccc(CSc2ccccc2-c2ccc(-c3cnc(N)cn3)c(F)c2)cc1 [Example 205, 5-(3-Fluoro-2′-{[4-(methylsulfonyl)benzyl]sulfanyl}biphenyl-4-yl)pyrazin-2-amine] | –
25 | 2 | Nc1cnc(-c2ccc(-c3ccccc3Sc3ncccn3)cc2F)cn1 [Example 213, 5-[3-Fluoro-2′-(pyrimidin-2-ylsulfanyl)biphenyl-4-yl]pyrazin-2-amine hydrochloride] | –
138 | 12 | Nc1ncc(-c2ccc(-c3ccccc3Sc3ccncn3)cc2F)cn1 [Example 214, 5-[3-Fluoro-2′-(pyrimidin-4-ylsulfanyl)biphenyl-4-yl]pyrimidin-2-amine formate salt] | –
12 | 2 | Nc1cnc(-c2ccc(-c3ccccc3Sc3cc(N)ncn3)cc2F)cn1 [Example 215, 6-{[4′-(5-Aminopyrazin-2-yl)-3′-fluorobiphenyl-2-yl]sulfanyl}pyrimidin-4-amine hydrochloride] | –
9 | 1 | Nc1cnc(-c2ccc(-c3ccccc3Sc3ncncc3N)cc2F)cn1 [Example 217, 4-{[4′-(5-Aminopyrazin-2-yl)-3′-fluorobiphenyl-2-yl]sulfanyl}pyrimidin-5-amine hydrochloride] | –
31 | 5 | Nc1cnc(Sc2ccccc2-c2ccc(-c3cnc(N)cn3)c(F)c2)nc1 [Example 219, 2-{[4′-(5-Aminopyrazin-2-yl)-3′-fluorobiphenyl-2-yl]sulfanyl}pyrimidin-5-amine hydrochloride] | –
219 | 205 | CNS(=O)(=O)Cc1ccccc1-c1ccc(-c2cnc(N)cn2)c(F)c1 [Example 220, 1-[4′-(5-Aminopyrazin-2-yl)-3′-fluorobiphenyl-2-yl]-N-methylmethanesulfonamide formic acid salt] | –
854 | 300 | Nc1cnc(-c2ccc(-c3ccccc3CS(=O)(=O)NCCO)cc2F)cn1 [Example 221, 1-[4′-(5-Aminopyrazin-2-yl)-3′-fluorobiphenyl-2-yl]-N-(2-hydroxyethyl)methanesulfonamide formic acid salt] | –
516 | 293 | C[C@@H](CO)NS(=O)(=O)Cc1ccccc1-c1ccc(-c2cnc(N)cn2)c(F)c1 [Example 224, (S)-1-(4′-(5-Aminopyrazin-2-yl)-3′-fluoro-[1,1′-biphenyl]-2-yl)-N-(1-hydroxypropan-2-yl)-methanesulfonamide] | –
5000 | 1200 | Nc1cnc(-c2ccc(-c3ccccc3CS(N)(=O)=O)cc2F)cn1 [Example 230, 1-[4′-(5-Aminopyrazin-2-yl)-3′-fluorobiphenyl-2-yl]methanesulfonamide hydrochloride] | –
238 | 25 | CCSCc1ccccc1-c1ccc(-c2cnc(N)cn2)c(F)c1 [Example 234, 5-{2′-[(Ethylsulfanyl)methyl]-3-fluorobiphenyl-4-yl}pyrazin-2-amine formic acid salt] | –
285 | 36 | CSCc1ccccc1-c1ccc(-c2cnc(N)cn2)c(F)c1 [Example 235, 5-{3-Fluoro-2′-[(methylsulfanyl)methyl]biphenyl-4-yl}pyrazin-2-amine hydrochloride] | –
443 | 57 | CC(C)SCc1ccccc1-c1ccc(-c2cnc(N)cn2)c(F)c1 [Example 236, 5-(3-Fluoro-2′-{[(1-methylethyl)sulfanyl]methyl}biphenyl-4-yl)pyrazin-2-amine hydrochloride] | –
134 | 8 | Nc1cnc(-c2ccc(-c3ccccc3CSc3nccc(N)n3)cc2F)cn1 [Example 237, 2-(((4′-(5-Aminopyrazin-2-yl)-3′-fluoro-[1,1′-biphenyl]-2-yl)methyl)thio)pyrimidin-4-amine hydrochloride] | –
38 | 5 | Nc1cnc(-c2ccc(-c3ccccc3CSc3cc(N)ncn3)cc2F)cn1 [Example 238, 6-(((4′-(5-Aminopyrazin-2-yl)-3′-fluoro-[1,1′-biphenyl]-2-yl)methyl)thio)pyrimidin-4-amine hydrochloride] | –
21 | 2 | Nc1cnc(-c2ccc(-c3ccccc3CSc3ccc(N)nn3)cc2F)cn1 [Example 240, 6-(((4′-(5-Aminopyrazin-2-yl)-3′-fluoro-[1,1′-biphenyl]-2-yl)methyl)thio)pyridazin-3-amine hydrochloride] | –
4 | 1 | Nc1cnc(-c2ccc(-c3ccccc3Sc3ccnc(N)n3)cc2F)cn1 [Example 242, 4-{[4′-(5-Aminopyrazin-2-yl)-3′-fluorobiphenyl-2-yl]sulfanyl}pyrimidin-2-amine hydrochloride] | –
120 | 3 | Nc1cnc(-c2ccc(-c3ccccc3CSc3ccncn3)cc2F)cn1 [Example 243, 5-(3-Fluoro-2′-((pyrimidin-4-ylthio)methyl)-[1,1′-biphenyl]-4-yl)pyrazin-2-amine hydrochloride] | –

Second part, the compound before the results:

SMILES | IC50 [1] [nM] | Ki (human FLAP; [2]) [nM] | Ki (human FLAP; [3]) [nM]
CC(C)S(=O)(=O)c1ccccc1-c1ccc(-c2cnc(N)cn2)c(F)c1 [Example 199, 5-{3-Fluoro-2′-[(1-methylethyl)sulfonyl]biphenyl-4-yl}pyrazin-2-amine] | 250 | 39 | –
CCN(CC)C(=O)CSc1ccccc1-c1ccc(-c2cnc(N)cn2)c(F)c1 [Example 201, 2-{[4′-(5-Aminopyrazin-2-yl)-3′-fluorobiphenyl-2-yl]sulfanyl}-N,N-diethylacetamide] | 358 | 21 | –
Nc1cnc(-c2ccc(-c3ccccc3SCC(=O)N3CCOCC3)cc2F)cn1 [Example 202, 5-{3-Fluoro-2′-[(2-morpholin-4-yl-2-oxoethyl)sulfanyl]biphenyl-4-yl}pyrazin-2-amine] | 172 | 72 | –
Nc1cnc(-c2ccc(-c3ccc(C(F)(F)F)cc3S(N)(=O)=O)cc2F)cn1 [Example 206, 4′-(5-Aminopyrazin-2-yl)-3′-fluoro-4-(trifluoromethyl)biphenyl-2-sulfonamide] | 43 | 2 | –
CS(=O)(=O)c1cc(C(F)(F)F)ccc1-c1ccc(-c2cnc(N)cn2)c(F)c1 [Example 207, 5-[3-Fluoro-2′-(methylsulfonyl)-4′-(trifluoromethyl)biphenyl-4-yl]pyrazin-2-amine] | 205 | 17 | –
Nc1cnc(-c2ccc(-c3ccc(C(F)(F)F)cc3S(=O)(=O)N3CCNC(=O)C3)cc2F)cn1 [Example 209, 4-{[4′-(5-Aminopyrazin-2-yl)-3′-fluoro-4-(trifluoromethyl)biphenyl-2-yl]sulfonyl}piperazin-2-one] | 34 | 1 | –
CCNS(=O)(=O)c1cc(C(F)(F)F)ccc1-c1ccc(-c2cnc(N)cn2)c(F)c1 [Example 211, 4′-(5-Aminopyrazin-2-yl)-N-ethyl-3′-fluoro-4-(trifluoromethyl)biphenyl-2-sulfonamide] | 6 | 1 | –
CN1CCN(S(=O)(=O)c2cc(C(F)(F)F)ccc2-c2ccc(-c3cnc(N)cn3)c(F)c2)CC1 [Example 212, 5-{3-Fluoro-2′-[(4-methylpiperazin-1-yl)sulfonyl]-4′-(trifluoromethyl)biphenyl-4-yl}pyrazin-2-amine] | 5 | 1 | –
Nc1cnc(-c2ccc(-c3ccccc3Sc3nccc(N)n3)cc2F)cn1 [Example 216, 2-{[4′-(5-Aminopyrazin-2-yl)-3′-fluorobiphenyl-2-yl]sulfanyl}pyrimidin-4-amine hydrochloride] | 16 | – | 2
Nc1cnc(-c2ccc(-c3ccccc3Sc3cnccn3)cc2F)cn1 [Example 218, 5-[3-Fluoro-2′-(pyrazin-2-ylsulfanyl)biphenyl-4-yl]pyrazin-2-amine hydrochloride] | 29 | – | 3
Nc1cnc(-c2ccc(-c3ccccc3CS(=O)(=O)N3CC(O)C3)cc2F)cn1 [Example 222, 1-({[4′-(5-Aminopyrazin-2-yl)-3′-fluorobiphenyl-2-yl]methyl}sulfonyl)azetidin-3-ol formic acid salt] | 638 | 118 | –
Nc1cnc(-c2ccc(-c3ccccc3CS(=O)(=O)N[C@H]3CC[C@H](O)CC3)cc2F)cn1 [Example 226, 1-[4′-(5-Aminopyrazin-2-yl)-3′-fluorobiphenyl-2-yl]-N-(trans-4-hydroxycyclohexyl)-methanesulfonamide formic acid salt] | 329 | – | 211
CCNS(=O)(=O)Cc1ccccc1-c1ccc(-c2cnc(N)cn2)c(F)c1 [Example 231, 1-[4′-(5-Aminopyrazin-2-yl)-3′-fluorobiphenyl-2-yl]-N-ethylmethanesulfonamide formate salt] | 564 | – | 135
Nc1cnc(-c2ccc(-c3ccccc3S(=O)(=O)C3CCS(=O)(=O)CC3)cc2F)cn1 [Example 241, 5-{2′-[(1,1-Dioxidotetrahydro-2H-thiopyran-4-yl)sulfonyl]-3-fluorobiphenyl-4-yl}pyrazin-2-amine] | 61 | 15 | –
